Data: patent US11965006B2, “Antimicrobial and anti-cancer therapy” (UNIVERSITY OF PITTSBURGH—OF THE COMMONWEALTH SYSTEM OF …, priority 2016, dated 2024)
“Also recorded” adds a separate entry of the source. Read-outs that look alike come from different tables or passages of the source. Square brackets hold non-standard residues; d marks the D form. Ends that are not written are not given here. Peptide text beside a SMILES is read from it.

What was measured:
[1] = tested on: methicillin-resistant Staphylococcus aureus (MRSA) clinical isolates; assay type: cell-based
Method: (§1) The bactericidal activities were examined using standard bacterial culture media (MHB) without the inclusion of human blood.
(§2) Tables 3 and 4 provide the MIC data for the tested AMPs against a variety of infectious species. The following strains were tested: Enterococcus faecium MDR clinical isolates Ef 25153 and Ef 26125; methicillin-resistant Staphylococcus aureus (MRSA) clinical isolates USA300 and 150-10; Klebsiella pneumonia MDR clinical isolates C3, C5, A5, D7 and E6; and Pseudomonas aeruginosa MDR clinical isolates PA 82-8 and PA 129-5. […] Table 5 provides the data for the D-amino acid substituted AMPs and their bactericidal activities against various Klebsiella pneumonia multi-drug resistant (MDR) clinical isolates. All odd number Kp bacteria (isolated prior to colistin treatment; colistin sensitive) are paired with the corresponding even number Kp bacteria (isolated after colistin treatment; colistin resistant) from the same patient. O.D. readings represent the bacterial growth with a background reading of about 0.049+/−0.003.

[2] = tested on: Pseudomonas aeruginosa MDR clinical isolates; assay type: cell-based
Method: as §1, §2

[3] = tested on: Enterococcus faecium MDR clinical isolates; assay type: cell-based
Method: as §1, §2

[4] = tested on: Klebsiella pneumonia MDR clinical isolates; assay type: cell-based
Method: as §1, §2

Pseudomonas aeruginosa = assay type: cell-based; conditions: for MIC: 18 h
Method: as §1
FIG. 5 illustrates the bactericidal activity of the 30 amino acid AMP series against Pseudomonas aeruginosa (by kinetic assay) over time (hours). […] OD reading, at 570 nm, represents bacterial growth; background reading (˜0.05) was subtracted from sample readings. Bolded concentration indicates the determined MIC. For example, MIC for SEQ ID No. 4 was 4 μM, MIC for SEQ ID No. 8 was 2 μM, MIC for SEQ ID No. 7 was 2 μM, MIC for SEQ ID No. 5 was 2 μM, MIC for SEQ ID No. 6 was 2 μM, and MIC for SEQ ID No. 9 was 2 μM.
FIG. 6 illustrates the bactericidal activity of the 24 amino acid AMPs series against Pseudomonas aeruginosa (by kinetic assay) over time (hours). […] OD reading, at 570 nm, represents bacterial growth; background reading (˜0.05) was subtracted from sample readings. Bolded concentration indicates the determined MIC.

[5] = tested on: P. aeruginosa lipopolysaccharide (LPS)-induced secretion of tumor necrosis factor (TNF) in Raw (264.7) Cells; experiment: Neutralization of LPS-induced TNF secretion; assay type: cell-based; conditions: 1 μg/ml LPS
Method: Anti-inflammatory activity is based on the determination of cytokine stimulation of major inflammatory (e.g. TNF) or anti-inflammatory (e.g., IL-10) cytokines. For in vitro studies, TNF is measured using culture medium from LPS-stimulated macrophage cultures in the presence or absence of peptide treatment. For in vivo studies, cytokine levels in bronchoalveolar lavage (BAL) fluid were quantified using the mouse cytokine multiplex panel assay (Milliplex; Millipore, Billerica, Mass.). The expressions of cytokines were analyzed using the Luminex assay system, based on manufacturer's instructions and our previous publication. Standard recombinant protein solution was used to generate a standard curve for each analyzed protein. Absolute cytokine concentrations were calculated from the standard curve for each cytokine.
A high dosage (1 μg/ml) of LPS was used to stimulate the TNF secretion in raw cells.

P. aeruginosa = experiment: In vivo respiratory P. aeruginosa infection; conditions: high dosage bacterial inoculation, FIG. 16
[6] = In vivo pulmonary toxicity; parameters: species or system mouse
Method: Pulmonary toxicity was tested in mouse lung.

Hep2 epithelial cells = experiment: Hep2 cytopathology in RSV plaque assay; assay type: cell-based; conditions: 32 μM
Method: Using a standard plaque assay, RSV replication was quantified in permissive Hep2 epithelial cells in the presence or absence of various AMPs. RSV plaque assays were used to determine the minimum dose required to induce Hep2 cytopathology and maximum anti-viral effects. Experimental controls included Hep2 cells+/−RSV and Hep-2 cells with AMP only.
Hep2 control cells without the AMP were also plated. Both plates were infected with the same dilution of A2 RSV virus. There is extensive sloughing of cells treated with the peptide (top plate) as compared to cells which were not (bottom plate), FIG. 18.

[7] = In vivo toxicity / maximum tolerated dose; parameters: species or system Mice (strain: Swiss Webster)
Method: The modified AMPs show a lower toxicity and higher maximum tolerated dosage (MTD) than WLBU2 (SEQ ID No. 26). The MTD for WLBU2 (SEQ ID No. 26) is 15 mg/kg, for Colistin is 10 mg/kg, and SEQ ID No. 15 is 30 mg/kg (FIG. 14A).
Mice (strain: Swiss Webster) were injected with SEQ ID No. 15 peptides intravenously (i.v.) or intraperitoneally (i.p.) at the concentrations indicated. […] Thus, the estimated maximum tolerated dose (MTD) is around 40-50 mpk (i.v.). On a similar setting of testing other AMPS, the MTD for WLBU2 is 15 mpk (i.v.) and 10 mpk (i.v.) for colistin.

[8] = methicillin-resistant clinical isolates, 18 h

Row | Compound | MIC MRSA 150-10 [1, 8] [µM] | MIC MRSA USA300 [1, 8] [µM] | MIC PA82 82-8 ([2]; MDR clinical isolates, 18 h) [µM] | MIC PA 129-5 ([2]; MDR clinical isolates, 18 h) [µM] | MIC Ef 25153 ([3]; MDR clinical isolates, 18 h) [µM] | MIC Ef 26125 ([3]; MDR clinical isolates, 18 h) [µM] | MIC C3 ([4]; 18 h) [µM] | MIC C5 ([4]; 18 h) [µM] | MIC D7 ([4]; 18 h) [µM] | MIC E6 ([4]; 18 h) [µM] | MIC (Pseudomonas aeruginosa) [µM] | MIC A5 ([4]; 18 h) [µM] | neutralizing LPS-induced TNF secretion [5] | other results
1 | ILKKWWKTSKGLLGGLLGGVTSVIKKLKKI [SEQ ID No. 7] | <2 | <2 | 2 | <2 | >4 | <2 | <2 | 4 | <2 | <2 | 2 | – | – | –
2 | ILKKWWKTVKGLLGGLLGGVTSVIKKLKKI [SEQ ID No. 9] | <2 | <2 | >4 | >4 | <2 | <2 | <2 | 4 | <2 | <2 | 2 | >4 | – | –
3 | ILKKWWKTSKGLLGGLLGGVTSVIKKLKKI [SEQ ID No. 8] | 4 | <2 | >4 | <2 | >4 | <2 | <2 | 4 | <2 | <2 | 2 | >4 | – | –
4 | ILKKWWKTSKGLLGGLLGKVTSVIKGLNNI [SEQ ID No. 5] | >4 | >4 | >4 | <1 | >4 | <2 | 4 | 2 | <1 | 4 | 2 | >4 | good activity; also recorded: display Neutralizing Activities | –
5 | ILKKWWKTSKGLLGGLLGKVTSVIKGLKNI [SEQ ID No. 6] | <2 | >4 | >4 | >4 | >4 | <1 | 4 | 4 | 4 | 4 | 2 | >4 | display Neutralizing Activities | –
6 | LKKWWKKVKGLLGGLLGK [SEQ ID No. 19, LKKWWKKVKGLLGGLLGK] | <1 | <2 | 8 | <1 | <2 | <2 | <2 | – | <2 | <2 | – | <2 | good activity; also recorded: Display Neutralizing Activities | antimicrobial activity against respiratory P. aeruginosa infection (P. aeruginosa): excellent antimicrobial activity
7 | ILKKWWGTSGGLLGGLLGKVTSVIKGLNNI [SEQ ID No. 3] | <32 | <32 | >32 | >32 | 16 | 16 | >32 | >32 | – | – | – | 32 | good activity; also recorded: display Neutralizing Activities | bactericidal activity (Pseudomonas aeruginosa; kinetic assay, FIG. 5): did not have strong bactericidal activity
8 | CC(C)[C@@H](NC(=O)[C@H](Cc1c[nH]c2ccccc12)NC(=O)[C@H](CCCNC(=N)N)NC(=O)[C@H](CCCNC(=N)N)NC(=O)[C@H](NC(=O)[C@H](NC(=O)[C@H](CCCNC(=N)N)NC(=O)[C@H](NC(=O)[C@H](NC(=O)[C@H](CCCNC(=N)N)NC(=O)[C@H](CCCNC(=N)N)NC(=O)[C@H](Cc1c[nH]c2ccccc12)NC(=O)[C@H](NC(=O)[C@H](CCCNC(=N)N)NC(=O)[C@H](CCCNC(=N)N)NC(=O)[C@H](NC(=O)[C@H](CCCNC(=N)N)NC(=O)[C@H](CCCNC(=N)N)NC(=O)[C@H](NC(=O)[C@H](Cc1c[nH]c2ccccc12)NC(=O)[C@H](CCCNC(=N)N)NC(=O)[C@@H](N)CCCNC(=N)N)C(C)C)C(C)C)C(C)C)C(C)C)C(C)C)C(C)C)C(C)C)C(=O)N[C@@H](CCCNC(=N)N)C(=O)N[C@@H](CCCNC(=N)N)C(=O)O [SEQ ID No. 34] (H-RRW[dV]RR[dV]RR[dV]WRR[dV][dV]R[dV][dV]RRW[dV]RR-OH; N-terminus and C-terminus assumed) | – | – | – | – | – | – | – | – | – | – | – | – | – | recruitment of leukocytes (a measure of inflammation) ([6]; at four times the concentration of SEQ ID No. 26): significantly lower than SEQ ID No. 26; behaviour of mice after treatment ([6]; response to the hand grab): more active and responsive; cytopathology in Hep2 cells (Hep2 epithelial cells): caused cytopathology
9 | Colistin [reference compound] | – | – | – | – | – | – | – | – | – | – | – | – | Do Not Neutralize | maximum tolerated dosage (MTD) ([7]; FIG. 14A): 10 mg/kg; maximum tolerated dose (MTD) ([7]; i.v., Swiss Webster mice): 10 mpk; MIC MRSA 150-10 ([1]; isolate 150-10, Table 3): <16 µM; MIC MRSA USA300 ([1]; isolate USA300, Table 3): <16 µM; MIC PA 82-8 ([2]; isolate PA 82-8, Table 3): <16 µM; MIC PA 129-5 ([2]; isolate PA 129-5, Table 3): <16 µM; MIC Ef 25153 ([3]; isolate Ef 25153, Table 3): <16 µM; MIC Ef 26125 ([3]; isolate Ef 26125, Table 3): <16 µM; MIC A5 ([4]; isolate A5, Table 3): >32 µM; MIC C3 ([4]; isolate C3, Table 3): >32 µM; MIC C5 ([4]; isolate C5, Table 3): >32 µM; MIC D7 ([4]; isolate D7, Table 3): <16 µM; MIC E6 ([4]; isolate E6, Table 3): <16 µM
10 | LKKWWKTVKGLLGGLLGKVTSVIK [SEQ ID No. 14] | <2 | <2 | <2 | <2 | <2 | <2 | <2 | 4 | <2 | <2 | – | >4 | good activity; also recorded: Display Neutralizing Activities | antimicrobial activity against respiratory P. aeruginosa infection (P. aeruginosa): excellent antimicrobial activity
11 | ILKKWWKTSGGLLGGLLGKVTSVIKGLNNI [SEQ ID No. 4] | >4 | >4 | >4 | 4 | >4 | <2 | >4 | 4 | <2 | >4 | 4 | >4 | good activity; also recorded: display Neutralizing Activities | –
